{"source": "patent US4640910A", "about": "(Abbott Laboratories, priority 1985, dated 1987)", "key": {"[1]": {"test_system": "Strep. pyogenes", "assay": "Extended mouse protection study", "details": "oral"}, "[2]": {"test_system": "Staph. aureus", "assay": "Extended mouse protection study", "details": "oral"}, "[3]": {"test_system": "Strep. pneumoniae", "assay": "Extended mouse protection study", "details": "oral"}, "[4]": {"test_system": "Staph. aureus A 5177", "assay": "Antimicrobial spectrum, agar dilution MIC", "format": "cell-based", "details": "Staphylococcus aureus, A5177; Staph. aureus A 5177; BHI agar, 35°-37° C., 20-24 hours; read-out: MIC"}, "[5]": {"test_system": "Micrococcus luteus 9341", "assay": "Antimicrobial spectrum, agar dilution MIC", "format": "cell-based", "details": "Micrococcus luteus, 9341"}, "[6]": {"test_system": "Lactobacillus casei ATCC 7469", "assay": "Antimicrobial spectrum, agar dilution MIC", "format": "cell-based", "details": "Lacticaseibacillus casei, ATCC7469"}, "[7]": {"test_system": "Strep. pyogenes 930", "assay": "Antimicrobial spectrum, agar dilution MIC", "format": "cell-based", "details": "Streptococcus pyogenes, BHI agar, 35°-37° C., 20-24 hours"}, "[8]": {"test_system": "Enterobact. aerogenes ATCC 13048", "assay": "Antimicrobial spectrum, agar dilution MIC", "format": "cell-based", "details": "Enterobact. aerogenes ATCC 13048; BHI agar, 35°-37° C., 20-24 hours; read-out: MIC"}, "[9]": {"test_system": "Providencia stuartii CMX 640", "assay": "Antimicrobial spectrum, agar dilution MIC", "format": "cell-based", "details": "CMX640; Providencia stuartii CMX 640; BHI agar, 35°-37° C., 20-24 hours; read-out: MIC"}, "[10]": {"test_system": "Ps. aeruginosa BMH10", "assay": "Antimicrobial spectrum, agar dilution MIC", "format": "cell-based", "details": "Pseudomonas aeruginosa; Ps. aeruginosa BMH10; BHI agar, 35°-37° C., 20-24 hours; read-out: MIC"}, "[11]": {"test_system": "Ps. aeruginosa A5007", "assay": "Antimicrobial spectrum, agar dilution MIC", "format": "cell-based", "details": "Pseudomonas aeruginosa, BHI agar, 35°-37° C., 20-24 hours"}, "[12]": {"test_system": "Ps. aeruginosa K799/WT", "assay": "Antimicrobial spectrum, agar dilution MIC", "format": "cell-based", "details": "Pseudomonas aeruginosa, BHI agar, 35°-37° C., 20-24 hours"}, "[13]": {"test_system": "Ps. cepacia 2961", "assay": "Antimicrobial spectrum, agar dilution MIC", "format": "cell-based", "details": "Burkholderia cepacia; Ps. cepacia 2961; BHI agar, 35°-37° C., 20-24 hours; read-out: MIC"}, "[14]": {"test_system": "indicated test organism", "assay": "Acute mouse protection test", "format": "in vivo, female, Swiss albino mice", "details": "1 and 5 hours post-infection, 7 days, * = highest level tested"}, "[15]": {"assay": "Stability and release of drug from prodrug in aqueous buffers pH 2 to 12 (dissolution apparatus, HPLC)", "format": "physicochemical", "experimental": "Samples of 2'-trimethylsilylerythromycin A and 2'-trimethylsilyl-6-O-methylerythromycin A were dissolved in 10-50 ml dimethyl sulfoxide or acetonitrile to give a solution containing 15-75 mg/ml. An aliquot containing 75 mg of prodrug was added to aqueous buffers ranging in pH from 2 to 12 to give a final volume equal to 500 ml. The buffered mixtures were stirred at 37° C. for at least 90 minutes. A standard dissolution test apparatus (Vanderkamp 600, Van-Kel Industries, Inc., 36 Meridian Road, Edisoin, N.J. 08820) was used to provide temperature and stirring rate control.\nAliquots were taken at 15, 30, 45, 60, 90, 120, 180, 240 and 360 minutes for analysis. Each sample was mixed with an internal standard, adjusted rapidly to pH 9 with 1M tricine buffer and extracted immediately with ethyl acetate. The organic extracts were evaporated and redissolved in a solution of 3% tetrahydrofuran in heptane. Samples of these solutions were injected using an autosampler (WISP 71)B, Waters Chromatography, Division of Millipore, 34 Maple Street, Milford, Mass. 01757). The prodrugs and drugs were separated by high performance liquid chromatography, detected at 225 nm using a spectrophotometer (Spectroflow 773 Absorbence Detector, Kratos Analytical Instruments), and were quantified with a digital integrator."}, "[16]": {"details": "carboxymethylcellulose with milk (reduces gastric acid secretion)"}, "[17]": {"details": "phosphate buffer solution with milk (reduces gastric acid secretion)"}, "[18]": {"details": "Mus musculus, po, 168 h, oral administration, read-out: ED50"}, "[19]": {"details": "Mus musculus, sc, 168 h, subcutaneous administration, read-out: ED50"}, "[20]": {"details": "Mus musculus, sc, 168 h, subcutaneous administration"}, "[21]": {"details": "Mus musculus, po, 168 h, oral administration"}}, "note": "Read-outs that look alike come from different tables or passages of the source.", "data": [{"smiles": "CC[C@H]1OC(=O)[C@H](C)[C@@H](O[C@H]2C[C@@](C)(OC)[C@@H](O)[C@H](C)O2)[C@H](C)[C@@H](O[C@@H]2O[C@H](C)C[C@H](N(C)C)[C@H]2O)[C@](C)(OC)C[C@@H](C)C(=O)[C@H](C)[C@@H](O)[C@]1(C)O", "note": "[6-O-methyl erythromycin A]", "values": [{"measurement": "ED50", "setting": "[1]; [16]", "result": 5.3, "unit": "mg/kg/day"}, {"measurement": "ED50", "setting": "[1]; phosphate buffer solution", "result": 5.9, "unit": "mg/kg/day"}, {"measurement": "ED50", "setting": "[1]; [17]", "result": 11.1, "unit": "mg/kg/day"}, {"measurement": "ED50", "setting": "[2]; carboxymethylcellulose", "result": 25.0, "unit": "mg/kg/day"}, {"measurement": "ED50", "setting": "[2]; phosphate buffer solution", "result": 27.2, "unit": "mg/kg/day"}, {"measurement": "ED50", "setting": "[3]; carboxymethylcellulose", "result": 2.4, "unit": "mg/kg/day"}, {"measurement": "ED50", "setting": "[3]; [16]", "result": 2.2, "unit": "mg/kg/day"}, {"measurement": "ED50", "setting": "[3]; phosphate buffer solution", "result": 1.6, "unit": "mg/kg/day"}, {"measurement": "ED50", "setting": "[3]; [17]", "result": 1.6, "unit": "mg/kg/day"}]}, {"smiles": "CC[C@H]1OC(=O)[C@H](C)[C@@H](O[C@H]2C[C@@](C)(OC)[C@@H](O)[C@H](C)O2)[C@H](C)[C@@H](O[C@@H]2O[C@H](C)C[C@H](N(C)C)[C@H]2O)[C@](C)(O)C[C@@H](C)C(=O)[C@H](C)[C@@H](O)[C@]1(C)O", "note": "[Erythromycin A, reference compound]", "values": [{"measurement": "MIC", "setting": "[4]", "result": 0.78, "unit": "µg/mL"}, {"measurement": "MIC", "setting": "[5]", "result": 0.02, "unit": "µg/mL"}, {"measurement": "MIC", "setting": "[6]", "result": 0.05, "unit": "µg/mL"}, {"measurement": "MIC", "setting": "[7]", "result": 100, "unit": "µg/mL"}, {"measurement": "MIC", "setting": "[8]", "result": 100, "unit": "µg/mL"}, {"measurement": "MIC", "setting": "[9]", "result": 100, "unit": "µg/mL"}, {"measurement": "MIC", "setting": "[10]", "result": 100, "unit": "µg/mL"}, {"measurement": "MIC", "setting": "[11]", "result": 100, "unit": "µg/mL"}, {"measurement": "MIC", "setting": "[12]", "result": 100, "unit": "µg/mL"}, {"measurement": "MIC", "setting": "[13]", "result": 100, "unit": "µg/mL"}, {"measurement": "ED50", "setting": "[14]; [18]", "result": 75.7, "unit": "mg/kg"}, {"measurement": "ED50", "setting": "[14]; [19]", "result": 10.9, "unit": "mg/kg"}, {"measurement": "ED50", "setting": "[14]; oral administration, 10080 min", "result": 48.8, "unit": "mg/kg/day"}, {"measurement": "ED50", "setting": "[1]; phosphate buffer solution", "result": 37.2, "unit": "mg/kg/day"}, {"measurement": "ED50", "setting": "[2]; carboxymethylcellulose", "result": 86.0, "unit": "mg/kg/day"}, {"measurement": "ED50", "setting": "[2]; phosphate buffer solution", "result": 75.7, "unit": "mg/kg/day"}]}, {"smiles": "CC[C@H]1OC(=O)[C@H](C)[C@@H](O[C@H]2C[C@@](C)(OC)[C@@H](O)[C@H](C)O2)[C@H](C)[C@@H](O[C@@H]2O[C@H](C)C[C@H](N(C)C)[C@H]2O[Si](C)(C)C)[C@](C)(O)C[C@@H](C)C(=O)[C@H](C)[C@@H](O)[C@]1(C)O", "note": "[Example 2, 2'-O-Trimethylsilyl Erythromycin A]", "values": [{"measurement": "degradation", "setting": "[15]; pH 2 and 4, 37° C.", "result": "degraded to anhydroerythromycin A"}, {"measurement": "anhydroerythromycin formed", "setting": "[15]; pH 6, 37° C.", "result": "significant amounts"}, {"measurement": "erythromycin A detected", "setting": "[15]; pH 6, 37° C.", "result": "A very small amount"}, {"measurement": "erythromycin formed", "setting": "[15]; pH 8, 10 or 12, 37° C.", "result": "No erythromycin was formed"}]}, {"smiles": "CC[C@H]1OC(=O)[C@H](C)[C@@H](O[C@H]2C[C@@](C)(OC)[C@@H](O[Si](C)(C)C)[C@H](C)O2)[C@H](C)[C@@H](O[C@@H]2O[C@H](C)C[C@H](N(C)C)[C@H]2O)[C@](C)(O)C[C@@H](C)C(=O)[C@H](C)[C@@H](O)[C@]1(C)O", "note": "[Example 8, 4\"-O-trimethylsilyl erythromycin A]", "values": [{"measurement": "ED50", "setting": "[14]; [18]", "result": 99.7, "unit": "mg/kg"}, {"measurement": "ED50", "setting": "[14]; [19]", "result": 16, "unit": "mg/kg"}, {"measurement": "ED50", "setting": "[14]; oral administration, listed as 4\"-O--TMS Ery A, 10080 min", "result": 61.5, "unit": "mg/kg/day"}]}, {"smiles": "CC[C@H]1OC(=O)[C@H](C)[C@@H](O[C@H]2C[C@@](C)(OC)[C@@H](O[Si](C)(C)C)[C@H](C)O2)[C@H](C)[C@@H](O[C@@H]2O[C@H](C)C[C@H](N(C)C)[C@H]2O)[C@](C)(OC)C[C@@H](C)C(=O)[C@H](C)[C@@H](O[Si](C)(C)C)[C@]1(C)O", "note": "[Example 10, 4\"-11-bis(O-TMS)-6-O-methyl erythromycin A]", "values": [{"measurement": "ED50", "setting": "[14]; [18]", "result": 51.8, "unit": "mg/kg"}, {"measurement": "ED50", "setting": "[14]; [20]", "result": 40, "unit": "mg/kg"}]}, {"smiles": "CC[C@H]1OC(=O)[C@H](C)[C@@H](O[C@H]2C[C@@](C)(OC)[C@@H](O)[C@H](C)O2)[C@H](C)[C@@H](O[C@@H]2O[C@H](C)C[C@H](N(C)C)[C@H]2O[Si](C)(C)C)[C@](C)(O)C[C@@H](C)C(=NO[Si](C)(C)C)[C@H](C)[C@@H](O)[C@]1(C)O", "note": "[Example 11, 2',9-bis(O-trimethylsilyl)-Erythromycin A-9-oxime]", "values": [{"measurement": "ED50", "setting": "[14]; [21]", "result": 150, "unit": "mg/kg"}, {"measurement": "ED50", "setting": "[14]; [20]", "result": 40, "unit": "mg/kg"}]}, {"smiles": "CC[C@H]1OC(=O)[C@H](C)[C@@H](O[C@H]2C[C@@](C)(OC)[C@@H](O[Si](C)(C)C)[C@H](C)O2)[C@H](C)[C@@H](O[C@@H]2O[C@H](C)C[C@H](N(C)C)[C@H]2OC(C)=O)[C@](C)(O)C[C@@H](C)C(=O)[C@H](C)[C@@H](O[Si](C)(C)C)[C@]1(C)O", "note": "[Example 12, 2'-Acetyl-4\",11-bis (-O-TMS)-Erythromycin A]", "values": [{"measurement": "ED50", "setting": "[14]; [21]", "result": 250, "unit": "mg/kg"}, {"measurement": "ED50", "setting": "[14]; [20]", "result": 40, "unit": "mg/kg"}]}]}
